Results reported in US12716050B2, “Two methods for preparing universal microbial medium by eutectic system-based cellulose liquefaction” (Xinjiang University, priority 2021, dated 2026).
Where two headings read alike, the source gives them in different places.

How the values were obtained:
[1] = Screening of ionic liquids for dissolving microcrystalline cellulose; type: physicochemical
Escherichia coli = conditions: LB solid medium, 48 h
Source text: Therefore, a purpose of this example is to screen a concentration range of the ionic liquid contained in the medium.

[2] = No. 3: 5 g IL, 3 g microcrystalline cellulose, 90° C., co-heated
[3] = No. 8: 10 g IL, 1 g microcrystalline cellulose, 90° C., co-heated
[4] = No. 11: 5 g IL, 3 g microcrystalline cellulose, 90° C., co-heated

## CCCCn1cc[n+](C)c1.[Cl-] [1-butyl-3-methylimidazolium chloride]
[1]; No. 1: 10 g IL, 1 g microcrystalline cellulose, 90° C., co-heated
  Conclusion (dissolution effect of microcrystalline cellulose): desirable
[1]; No. 1: 10 g IL, 1 g microcrystalline cellulose, 90° C., co-heated, stirred 20 sec every 5 min
  Dissolution time: 40 min
[1]; No. 2: 5 g IL, 3 g microcrystalline cellulose, 110° C., IL preheated to liquid state
  Conclusion (dissolution effect of microcrystalline cellulose): desirable
[1]; No. 2: 5 g IL, 3 g microcrystalline cellulose, 110° C., IL preheated to liquid state, mixed by stirring
  Dissolution time: 1 min
[1]; [2]
  Conclusion (dissolution effect of microcrystalline cellulose): common
  Dissolution time: 240 min
[1]; overall conclusion of Example 1
  Effect in pretreatment of cellulose: could well process the cellulose
Escherichia coli
  Ionic liquid concentration at which the growth of Escherichia coli is inhibited: not less than 3%
Escherichia coli; ionic solution concentration 1%
  Growth state of strains: Normal
Escherichia coli; ionic solution concentration 3%
  Growth state of strains: Slightly inhibited
Escherichia coli; ionic solution concentration 4%
  Growth state of strains: Inhibited growth
Escherichia coli; ionic solution concentration 5%
  Growth state of strains: Inhibited growth
Escherichia coli; ionic solution concentration 6%
  Growth state of strains: No growth
Escherichia coli; ionic solution concentration 7%
  Growth state of strains: No growth
Treatment 1: 10 g IL, 1 g microcrystalline cellulose, co-heated to 90° C., repeated
  Conclusion (dissolution effect): Poor
Treatment 2: 10 g IL, 1 g cellulose, IL heated to 90° C., heating to 90° C. repeated
  Conclusion (dissolution effect): Common
Treatment 3: 10 g IL, 1 g cellulose, IL heated to 90° C., heating to 100° C. repeated
  Conclusion (dissolution effect): Common
Treatment 4: 10 g IL, 1 g cellulose, IL heated to 90° C., heating to 110° C. repeated
  Conclusion (dissolution effect): Common
Treatment 5: 10 g IL, 1 g cellulose, IL heated to 90° C., heating to 120° C. repeated
  Conclusion (dissolution effect): Common
Treatment 6: 10 g IL, 1 g cellulose, 90° C., 120° C., heating to 180° C. repeated
  Conclusion (dissolution effect): Desirable
Treatment 7: 8 g IL, 1 g cellulose, 90° C., 120° C., heating to 180° C. repeated
  Conclusion (dissolution effect): Desirable
Treatment 8: 5 g IL, 1 g cellulose, 90° C., 180° C., heating to 180° C. repeated
  Conclusion (dissolution effect): Desirable
Treatment 9: 5 g IL, 1.5 g cellulose, 90° C., 120° C., heating to 180° C. repeated
  Conclusion (dissolution effect): Desirable
Treatment 10: 5 g IL, 2 g cellulose, 90° C., 120° C., heating to 180° C. repeated
  Conclusion (dissolution effect): Desirable
Treatment 11: 5 g IL, 2.5 g cellulose, 90° C., 120° C., heating to 180° C. repeated
  Conclusion (dissolution effect): Desirable

## C=CCn1cc[n+](C)c1.[Cl-] [1-allyl-3-methylimidazolium chloride]
[1]; [3]
  Conclusion (dissolution effect of microcrystalline cellulose): desirable
  Dissolution time: 40 min
[1]; No. 9: 5 g IL, 1 g microcrystalline cellulose, IL heated to 100° C.
  Conclusion (dissolution effect of microcrystalline cellulose): common
[1]; No. 9: 5 g IL, 1 g microcrystalline cellulose, IL heated to 100° C., cellulose added
  Dissolution time: 20 min
[1]; No. 10: 5 g IL, 2 g microcrystalline cellulose, 100° C., soaked in IL for 20 h, co-heated
  Conclusion (dissolution effect of microcrystalline cellulose): common
[1]; No. 10: 5 g IL, 2 g microcrystalline cellulose, 100° C., soaked in IL for 20 h, co-heated in water bath
  Dissolution time: 10 min
[1]; [4]
  Conclusion (dissolution effect of microcrystalline cellulose): has a poor
  Dissolution time: 240 min
